Experimental data from paper PMC4749168, “Potentiation of ΔF508- and G551D-CFTR-Mediated Cl^- Current by Novel Hydroxypyrazolines” (PLoS ONE, 2016).
“And” between values parts separate entries of the source, which are not always exact repeats. Identical values can stand only once.

How the values were obtained:
ΔF508-CFTR [1] = biological target: T1, ΔF508-CFTR (Homo sapiens, UniProt P13569, DEL508-508); assay: Apical membrane current of VX-809-rescued ΔF508-CFTR in FRT cells; type: cell-based; design: expressed in transfected cells; host or cells: Fisher rat thyroid (FRT) cells, co-expressing halide sensor YFP-H148Q/I152L; provided by Dr. Alan Verkman; conditions: 48 h, combined with 5 μM VX-809, 10 μM CP7q or 5 μM VX-770
Method: (§1) Snapwell inserts containing CFTR-expressing FRT and primary culture of human nasal epithelial cells were mounted in Ussing chambers (Physiologic Instruments, San Diego, CA). Forskolin, genistein, CP7q and CFTRinh-172 were added to the apical and basolateral bath solution. For FRT cells, the apical bath was filled with a half-Cl^- solution and the basolateral bath was filled with HCO3^—buffered solution, and the basolateral membrane was permeabilized with 250 μg/mL amphotericin B. For primary cultures of human nasal epithelial cells, symmetrical HCO3^—buffered solutions were used and ENaC was inhibited by pre-treatment with amiloride (100 μM). All cells were bathed for a 20 min stabilization period and aerated with 95% O2 / 5% CO2 at 37°C. Apical membrane current and short-circuit current were measured with an EVC4000 Multi-Channel V/I Clamp (World Precision Instruments, Sarasota, FL) and recorded using PowerLab 4/35 (AD Instruments, Castle Hill, Australia). Data were collected and analyzed with ADInstruments acquisition software Labchart Pro 7 software. The sampling rate was 4 Hz.

HT-29 cells = assay: MTS cell viability assay; type: cell-based, human; conditions: 24 h, up to 10 μM
Method: HT-29 human colon adenocarcinoma cells were plated at a density of 1 x10^4 per cm^2on 96-well microplates. After 24 h incubation, cells were treated with hydroxypyrazolines and then incubated for 1 day. An equal amount of DMSO was added to the all control. The culture medium and the compounds were changed every 12 h. For MTS assay, the cells were reincubated with MTS for 1 hour. The soluble formazan produced by cellular reduction of MTS was quantified by measuring the absorbance at 490 nm with Infinite M200 (Tecan, Grödig, Austria) microplate reader. MTS assay was done using CellTiter 96® AQueous One Solution Cell Proliferation Assay kit (Promega, Madison, WI, USA).

ΔF508-CFTR [2] = biological target: T1, ΔF508-CFTR; assay: Apical membrane current (Ussing chamber) in FRT cells expressing low temperature-rescued ΔF508-CFTR; type: cell-based; design: expressed in transfected cells; host or cells: Fisher rat thyroid (FRT) cells, co-expressing halide sensor YFP-H148Q/I152L; provided by Dr. Alan Verkman; conditions: 20 μM forskolin
Method: as §1

ΔF508-CFTR [3] = biological target: T1, ΔF508-CFTR; assay: Halide-sensitive YFP microplate reader assay of CFTR potentiation, ΔF508-CFTR; type: cell-based; design: expressed in transfected cells; host or cells: Fisher rat thyroid (FRT) cells, co-expressing halide sensor YFP-H148Q/I152L; provided by Dr. Alan Verkman; conditions: FRT cells rescued at 27°C, 10 μM forskolin
Method: FRT cells expressing wild type- or ΔF508-CFTR with the halide sensor YFP-H148Q/I152L were plated in 96-well black-walled microplates (Corning Inc., Corning, NY) at a density of 2 x10^4cells per well. FRT-WT-CFTR-YFP cells were incubated for 48 h at 37°C, and FRT-ΔF508-CFTR-YFP cells were incubated for 24 h at 27°C after 24 h incubation at 37°C to rescue ΔF508-CFTR localization. Assays were done using FLUO star Omega microplate reader (BMG Labtech, Ortenberg, Germany) and MARS Data Analysis Software (BMG Labtech). Each well of a 96-well plate was washed 3 times in PBS (200 μL/wash). 100 μL PBS was added to each well. Forskolin (0.1 and 10 μM for WT- and ΔF508-CFTR, respectively) and test compounds (1 μL) were added to each well. After 10 min, 96-well plates were transferred to the microplate reader preheated to 37°C for fluorescence assay. Each well was assayed individually for CFTR-mediated I^- influx by recording fluorescence continuously (200 ms per point) for 2 s (baseline), then 100 μL of 140 mM I^- solution was added at 2 s and then YFP fluorescence was recorded for 14 s. Initial iodide influx rate was determined from the initial slope of fluorescence decrease, by nonlinear regression, following infusion of iodide.

G551D-CFTR = biological target: T2, G551D-CFTR (Homo sapiens, UniProt P13569, G551D); assay: Apical membrane current (Ussing chamber) in FRT cells expressing G551D-CFTR; type: cell-based
T2 construct: expressed in transfected cells; host or cells: Fisher rat thyroid (FRT) cells; provided by Dr. Alan Verkman
Method: as §1, with “Forskolin, genistein, CP7q and CFTRinh-172 were added to the apical and basolateral bath solution.” left out, “All cells were bathed for a 20 min stabilization period and aerated with 95% O2 / 5% CO2 at 37°C.” left out

T1 sequence (P13569 with tags, fused parts or gaps DEL508-508): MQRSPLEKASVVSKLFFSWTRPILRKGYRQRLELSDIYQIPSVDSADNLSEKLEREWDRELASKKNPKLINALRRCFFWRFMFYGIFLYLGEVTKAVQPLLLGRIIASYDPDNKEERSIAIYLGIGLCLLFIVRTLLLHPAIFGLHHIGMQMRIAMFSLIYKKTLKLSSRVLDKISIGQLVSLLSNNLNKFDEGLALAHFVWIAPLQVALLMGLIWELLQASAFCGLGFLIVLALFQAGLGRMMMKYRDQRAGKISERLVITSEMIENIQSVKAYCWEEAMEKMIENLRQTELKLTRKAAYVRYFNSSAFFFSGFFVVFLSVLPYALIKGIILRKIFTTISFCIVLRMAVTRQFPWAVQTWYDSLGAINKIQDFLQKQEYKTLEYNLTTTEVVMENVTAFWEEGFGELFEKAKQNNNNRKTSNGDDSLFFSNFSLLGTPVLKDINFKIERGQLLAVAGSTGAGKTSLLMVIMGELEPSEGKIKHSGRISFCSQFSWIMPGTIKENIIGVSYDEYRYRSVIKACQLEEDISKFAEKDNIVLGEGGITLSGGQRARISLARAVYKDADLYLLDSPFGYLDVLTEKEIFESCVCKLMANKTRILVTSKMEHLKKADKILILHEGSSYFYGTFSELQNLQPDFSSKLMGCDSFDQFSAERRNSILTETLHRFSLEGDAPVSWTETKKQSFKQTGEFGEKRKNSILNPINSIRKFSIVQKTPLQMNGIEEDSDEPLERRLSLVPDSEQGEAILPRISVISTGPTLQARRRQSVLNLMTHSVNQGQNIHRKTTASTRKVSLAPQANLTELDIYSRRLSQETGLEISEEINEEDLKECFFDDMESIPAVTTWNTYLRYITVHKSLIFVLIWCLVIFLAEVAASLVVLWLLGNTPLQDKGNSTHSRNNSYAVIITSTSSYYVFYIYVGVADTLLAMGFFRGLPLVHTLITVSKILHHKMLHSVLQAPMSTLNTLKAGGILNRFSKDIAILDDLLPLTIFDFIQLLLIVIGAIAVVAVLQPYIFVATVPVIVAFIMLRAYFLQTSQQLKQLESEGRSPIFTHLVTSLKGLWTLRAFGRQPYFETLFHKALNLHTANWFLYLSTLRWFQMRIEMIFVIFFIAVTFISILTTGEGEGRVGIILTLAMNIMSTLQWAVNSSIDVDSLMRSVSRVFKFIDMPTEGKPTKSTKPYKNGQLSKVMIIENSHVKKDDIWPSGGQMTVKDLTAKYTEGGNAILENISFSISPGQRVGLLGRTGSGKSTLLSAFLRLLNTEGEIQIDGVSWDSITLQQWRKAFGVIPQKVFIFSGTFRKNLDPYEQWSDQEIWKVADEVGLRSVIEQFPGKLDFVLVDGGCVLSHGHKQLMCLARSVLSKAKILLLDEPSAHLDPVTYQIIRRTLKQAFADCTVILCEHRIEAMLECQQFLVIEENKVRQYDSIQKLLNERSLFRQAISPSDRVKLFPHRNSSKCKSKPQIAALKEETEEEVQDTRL
T2 sequence (P13569 whole entry G551D): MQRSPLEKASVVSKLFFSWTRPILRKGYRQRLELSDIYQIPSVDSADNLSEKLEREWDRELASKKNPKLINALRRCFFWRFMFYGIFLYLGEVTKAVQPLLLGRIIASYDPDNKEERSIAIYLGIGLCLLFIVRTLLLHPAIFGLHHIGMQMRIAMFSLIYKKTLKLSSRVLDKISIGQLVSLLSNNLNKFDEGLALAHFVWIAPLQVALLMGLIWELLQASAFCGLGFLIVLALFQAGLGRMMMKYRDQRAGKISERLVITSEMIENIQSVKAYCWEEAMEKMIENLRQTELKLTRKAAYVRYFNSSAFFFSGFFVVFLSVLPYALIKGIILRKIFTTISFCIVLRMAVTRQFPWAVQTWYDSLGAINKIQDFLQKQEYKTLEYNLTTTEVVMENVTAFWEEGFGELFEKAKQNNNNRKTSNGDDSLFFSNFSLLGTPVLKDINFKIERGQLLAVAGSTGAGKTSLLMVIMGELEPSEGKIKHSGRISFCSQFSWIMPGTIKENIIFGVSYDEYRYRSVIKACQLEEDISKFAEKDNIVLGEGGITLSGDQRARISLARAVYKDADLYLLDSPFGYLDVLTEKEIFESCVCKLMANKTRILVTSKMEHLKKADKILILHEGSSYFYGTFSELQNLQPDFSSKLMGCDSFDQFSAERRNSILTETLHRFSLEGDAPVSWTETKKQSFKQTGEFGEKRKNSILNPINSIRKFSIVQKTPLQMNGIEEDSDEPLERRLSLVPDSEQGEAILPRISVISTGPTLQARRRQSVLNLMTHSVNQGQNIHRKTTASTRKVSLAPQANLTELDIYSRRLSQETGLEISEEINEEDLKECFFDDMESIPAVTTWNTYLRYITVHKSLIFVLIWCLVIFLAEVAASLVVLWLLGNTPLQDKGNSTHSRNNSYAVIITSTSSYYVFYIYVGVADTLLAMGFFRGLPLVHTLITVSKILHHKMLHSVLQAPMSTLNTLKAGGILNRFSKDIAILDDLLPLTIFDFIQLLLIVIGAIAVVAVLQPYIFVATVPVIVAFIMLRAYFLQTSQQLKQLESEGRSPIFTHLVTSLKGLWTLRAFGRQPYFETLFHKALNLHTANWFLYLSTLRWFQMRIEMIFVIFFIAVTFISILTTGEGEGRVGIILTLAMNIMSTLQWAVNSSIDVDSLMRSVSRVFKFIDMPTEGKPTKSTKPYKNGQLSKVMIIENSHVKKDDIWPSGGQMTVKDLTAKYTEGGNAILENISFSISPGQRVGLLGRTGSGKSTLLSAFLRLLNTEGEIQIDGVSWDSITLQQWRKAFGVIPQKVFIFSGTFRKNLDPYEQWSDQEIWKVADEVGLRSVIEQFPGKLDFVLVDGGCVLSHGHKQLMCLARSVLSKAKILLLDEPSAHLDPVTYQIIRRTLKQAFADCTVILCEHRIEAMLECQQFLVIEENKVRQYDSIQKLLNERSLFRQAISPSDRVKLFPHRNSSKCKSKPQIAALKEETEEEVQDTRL

## COc1ccc(C2CC(c3ccc(O)cc3O)=NN2c2ccc(S(N)(=O)=O)cc2)c(OC)c1 (stereo not drawn) [Compound 7q, 4-[3-(2,4-dihydroxyphenyl)-5-(2,4-dimethoxyphenyl)-4,5-dihydro-1H-pyrazol-1-yl] benzenesulfonamide]
ΔF508-CFTR [1]
  Effect on apical membrane current of VX-809-rescued ΔF508-CFTR: strongly increased
HT-29 cells
  Cytotoxicity (cell viability, MTS): no cytotoxicity
ΔF508-CFTR [2]; genistein 50 μM
  Efficacy of ΔF508-CFTR potentiation compared with genistein: slightly higher than that of genistein
ΔF508-CFTR [2]; FRT cells, 27°C rescue 24 h
  EC50: 4.45 µM and ~4.45 µM
ΔF508-CFTR [3]
  EC50: 4.8 µM
G551D-CFTR; 20 μM forskolin, 30 μM CP7q vs 10 μM VX-770
  Potentiation of G551D-CFTR Cl- current compared with VX-770: comparable to VX-770
G551D-CFTR; 20 μM forskolin, 30 μM CP7q vs 50 μM genistein
  Potentiation of G551D-CFTR Cl- current relative to genistein: 1.9 times
G551D-CFTR; 20 μM forskolin, 50 μM genistein, 10 μM VX-770, CP7q
  Potentiation of G551D-CFTR Cl- current: significantly potentiated
G551D-CFTR; higher than genistein
  Maximal potentiation of G551D-CFTR chloride conductance relative to genistein: 1.9 fold
